These results are taken from patent publication US7741326B2, “Indole and benzofuran 2-carboxamide derivatives and uses thereof” (Roche Palo Alto LLC, priority 2006, dated 2010).

Each structure is given as a SMILES string.

The target of experiment [1] is T1, recombinant human 5-HT2A receptor (Homo sapiens, UniProt P28223).
T1 construct: expressed in transfected cells
As to the kind of experiment: Radioligand binding, [3H]Ketanserin competition in CHO-K1 cell membranes. The note with it: [3H]Ketanserin displacement, pH 7.4 at 32° C., read-out: pKi for the 5-HT2A receptor (converted). The procedure: (§1) The binding activity of compounds of this invention in vitro was determined as follows. Duplicate determinations of 5-HT6 ligand affinity were made by competing for binding of [^3H]LSD in cell membranes derived from HEK293 cells stably expressing recombinant human 5-HT6 receptor. Duplicate determinations of 5-HT2A ligand affinity were made by competing for binding of [^3H]Ketanserin (3-(2-(4-(4-fluorobenzoyl)piperidinol)ethyl)-2,4(1H,3H)-quinazolinedione) in cell membranes derived from CHO-Ki cells stably expressing recombinant human 5-HT2A receptor. Membranes were prepared from HEK 293 cell lines by the method described by Monsma et al., Molecular Pharmacology, Vol. 43 pp. 320-327 (1993), and from CHO-K1 cell lines as described by Bonhaus et al., Br J Pharmacol. June; 115(4):622-8 (1995).
(§2) For estimation of affinity at the 5-HT6 receptor, all determinations were made in assay buffer containing 50 mM Tris-HCl, 10 mM MgSO4, 0.5 mM EDTA, 1 mM ascorbic acid, pH 7.4 at 37° C., in a 250 microliter reaction volume. […]
(§3) Assay tubes containing [^3H] […] LSD or [^3H]Ketanserin were determined as radioactive counts per minute using Packard TopCount.
(§4) Displacement of [^3H]LSD or [^3H]Ketanserin from the binding sites was quantified by fitting concentration-binding data to a 4-parameter logistic equation: […]

For experiment [2], the target named is T2, recombinant human 5-HT6 receptor (Homo sapiens, UniProt P50406).
T2 construct: expressed in transfected cells
As to the kind of experiment: Radioligand binding, [3H]LSD competition in HEK293 cell membranes. The note with it: [3H]LSD displacement, pH 7.4 at 37° C., read-out: pKi for the 5-HT6 receptor (converted). The method, then:
as §1, §2, §3, §4

T2 sequence (P50406 whole entry): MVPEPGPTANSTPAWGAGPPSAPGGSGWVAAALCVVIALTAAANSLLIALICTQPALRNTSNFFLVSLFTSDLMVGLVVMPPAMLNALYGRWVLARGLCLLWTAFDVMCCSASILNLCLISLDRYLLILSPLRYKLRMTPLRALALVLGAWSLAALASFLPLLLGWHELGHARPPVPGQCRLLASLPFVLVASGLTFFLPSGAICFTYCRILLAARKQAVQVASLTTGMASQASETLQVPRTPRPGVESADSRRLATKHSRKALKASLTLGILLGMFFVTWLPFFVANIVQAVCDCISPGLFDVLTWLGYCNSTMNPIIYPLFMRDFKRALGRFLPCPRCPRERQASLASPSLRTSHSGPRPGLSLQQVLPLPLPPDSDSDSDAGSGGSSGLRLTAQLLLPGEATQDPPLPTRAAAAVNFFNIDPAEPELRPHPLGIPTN
T1 sequence (P28223 whole entry): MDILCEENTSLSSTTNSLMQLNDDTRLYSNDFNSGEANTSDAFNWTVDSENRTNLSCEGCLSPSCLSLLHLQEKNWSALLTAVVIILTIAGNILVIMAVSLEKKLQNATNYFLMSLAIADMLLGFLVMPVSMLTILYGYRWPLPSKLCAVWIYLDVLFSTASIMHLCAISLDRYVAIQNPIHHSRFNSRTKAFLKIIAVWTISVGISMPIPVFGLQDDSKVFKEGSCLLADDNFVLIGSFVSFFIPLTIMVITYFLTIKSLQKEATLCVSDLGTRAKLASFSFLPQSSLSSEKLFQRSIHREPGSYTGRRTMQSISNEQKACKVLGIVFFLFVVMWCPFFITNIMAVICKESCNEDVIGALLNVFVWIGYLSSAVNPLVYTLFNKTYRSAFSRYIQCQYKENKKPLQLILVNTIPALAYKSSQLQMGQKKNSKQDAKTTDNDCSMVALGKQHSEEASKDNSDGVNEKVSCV

As to `Cc1cc(N2CCNCC2)c2oc(C(N)=O)c(Cc3cccc(F)c3)c2c1` [Compound 31, 3-(3-Fluoro-benzyl)-5-methyl-7-piperazin-1-yl-benzofuran-2-carboxylic acid amide], in experiment [1], the Ki was roughly 1.23 nM.

Regarding `CNC(=O)c1cc2c(N3CCNCC3)cccc2n1Cc1cccc(F)c1` [Compound 26, 1-(3-Fluoro-benzyl)-4-piperazin-1-yl-1H-indole-2-carboxylic acid methylamide], the Ki in experiment [2] is roughly 0.126 nM.
